Data published in ChEMBL document CHEMBL5576068, “Design, synthesis, and biological antitumor evaluation of tetrahydroisoquinoline derivatives” (Bioorg Med Chem Lett, 2024).
pIC50: −log10 of the molar value.

Columns and labels:
HepG2 [1] = assay: Cytotoxicity against human HepG2 cells assessed as cell inhibition rate at 40 uM by CCK8 assay relative to control; format: functional
A-375 [2] = assay: Cytotoxicity against human A-375 cells assessed as cell inhibition rate at 40 uM by CCK8 assay relative to control; format: functional
MDA-MB-231 [3] = assay: Cytotoxicity against human MDA-MB-231 cells assessed as cell inhibition rate at 40 uM by CCK8 assay relative to control; format: functional
HCT-116 [4] = assay: Cytotoxicity against human HCT-116 cells assessed as cell inhibition rate at 40 uM by CCK8 assay relative to control; format: functional
HCT-116 [5] = assay: Cytotoxicity against human HCT-116 cells measured for 48 hrs; format: functional, cell-based; conditions: HCT-116, 48 h
A-375 [6] = assay: Cytotoxicity against human A-375 cells measured for 48 hrs; format: functional, cell-based; conditions: A-375, 48 h
MDA-MB-231 [7] = assay: Cytotoxicity against human MDA-MB-231 cells measured for 48 hrs; format: functional, cell-based; conditions: MDA-MB-231, 48 h
HepG2 [8] = assay: Cytotoxicity against human HepG2 cells measured for 48 hrs; format: functional, cell-based; conditions: HepG2, 48 h

Row | Compound | inhibition at 40 µM (HepG2 [1]) [%] | inhibition at 40 µM (A-375 [2]) [%] | inhibition at 40 µM (MDA-MB-231 [3]) [%] | inhibition at 40 µM (HCT-116 [4]) [%] | pIC50 (HCT-116 [5]) | pIC50 (A-375 [6]) | pIC50 (MDA-MB-231 [7]) | pIC50 (HepG2 [8])
1 | COc1cc2c(cc1OC)CN(C)CC2 | 20.6 | 27.4 | 30.7 | 25.2 | – | – | – | –
2 | CN1CCc2cc3c(cc2C1)OCO3 | 26.8 | 22.5 | 14.5 | 18.2 | – | – | – | –
3 | COc1cc2c(cc1OCc1ccccc1)CN(C)CC2 | 16.3 | 14.7 | 30.2 | 32.9 | – | – | – | –
4 | COc1cc2c(cc1OCc1ccccc1)C[N+](C)(Cc1ccc(Oc3ccc(-c4ccc(C#N)cc4)cc3)nc1)CC2 (centres undefined) | – | – | – | – | 5.12 | 5.01 | < 4.70 | 5.42
5 | COc1cc2c(cc1OCc1ccccc1)C[N+](C)(Cc1ccc([N+](=O)[O-])nc1)CC2 (centres undefined) | 22.6 | 16.1 | 10.1 | 26.6 | – | – | – | –
6 | C[N+]1(Cc2ccc(Br)nc2)CCc2cc3c(cc2C1)OCO3 (centres undefined) | 19.8 | 9.69 | 23.2 | 29.2 | – | – | – | –
7 | COc1cc2c(cc1OCc1ccccc1)C[N+](C)(Cc1ccc(Oc3ccc(Oc4ccccc4)cc3)nc1)CC2 (centres undefined) | – | – | – | – | 4.94 | 5.12 | 4.90 | 4.90
8 | COc1cc2c(cc1OCc1ccccc1)C[N+](C)(Cc1ccc(Oc3ccc(Oc4ccc(C(F)(F)F)cc4)cc3)nc1)CC2 (centres undefined) | – | – | – | – | 5.39 | 5.21 | 5.01 | 5.39
9 | CCCCC[C@H]1CC[C@H](c2ccc(Oc3ccc(C[N+]4(C)CCc5cc(OC)c(OCc6ccccc6)cc5C4)cn3)cc2)CC1 (some centres undefined) | – | – | – | – | 5.05 | 5.06 | 4.94 | 4.94
10 | COc1cc2c(cc1OCc1ccccc1)C[N+](C)(Cc1ccc(Oc3ccc(OC(C)C)cc3)nc1)CC2 (centres undefined) | – | – | – | – | 4.71 | 4.87 | < 4.70 | 5.01
11 | COc1cc2c(cc1OCc1ccccc1)C[N+](C)(Cc1ccc(Nc3ccccc3[N+](=O)[O-])nc1)CC2 (centres undefined) | – | – | – | – | 5.34 | 5.12 | 5.00 | 5.32
12 | COc1cc2c(cc1OCc1ccccc1)C[N+](C)(Cc1ccc(Oc3ccc(C4CC4)cc3)nc1)CC2 (centres undefined) | – | – | – | – | < 4.70 | 4.80 | 4.90 | 4.72
13 | CCCCN(CCCC)c1ccc(Oc2ccc(C[N+]3(C)CCc4cc(OC)c(OCc5ccccc5)cc4C3)cn2)cc1 (centres undefined) | – | – | – | – | 4.98 | 4.99 | < 4.70 | 5.00
14 | COc1cc2c(cc1OCc1ccccc1)C[N+](C)(Cc1ccc(Oc3cc(Cl)ccc3Oc3ccc(Cl)cc3Cl)nc1)CC2 (centres undefined) | – | – | – | – | 5.35 | 5.27 | 5.03 | 5.33
15 | COc1cc2c(cc1OCc1ccccc1)C[N+](C)(Cc1ccc(Oc3ccc(/N=N/c4ccccc4)cc3)nc1)CC2 (centres undefined) | – | – | – | – | 4.94 | 5.26 | 4.88 | 4.88
16 | COc1cc2c(cc1OCc1ccccc1)C[N+](C)(Cc1cnc3ccccc3c1)CC2 (centres undefined) | 6.8 | 13.9 | 7.43 | 8.29 | – | – | – | –

Row | Compound | inhibition at 40 µM (HepG2 [1]) [%] | inhibition at 40 µM (A-375 [2]) [%] | inhibition at 40 µM (MDA-MB-231 [3]) [%] | inhibition at 40 µM (HCT-116 [4]) [%] | pIC50 (HCT-116 [5]) | pIC50 (A-375 [6]) | pIC50 (MDA-MB-231 [7]) | pIC50 (HepG2 [8])
17 | COc1cc2c(cc1OCc1ccccc1)C[N+](C)(Cc1ccc(Oc3ccc(SC(F)(F)F)cc3)nc1)CC2 (centres undefined) | – | – | – | – | 4.87 | 4.94 | 4.82 | 4.84
18 | COc1cc2c(cc1OCc1ccccc1)C[N+](C)(Cc1ccc(Br)nc1)CC2 (centres undefined) | 27.3 | 22.2 | 17.4 | 20.7 | – | – | – | –
19 | COc1cc2c(cc1OCc1ccccc1)C[N+](C)(Cc1ccc(Oc3ccc(C45CC6CC(CC(C6)C4)C5)cc3)nc1)CC2 (centres undefined) | – | – | – | – | 5.60 | 4.91 | 5.34 | 5.38
20 | COc1cc2c(cc1OCc1ccccc1)C[N+](C)(Cc1ccccn1)CC2 (centres undefined) | 18.9 | 13.7 | 9.61 | 11.6 | – | – | – | –
21 | COc1cc2c(c(OC)c1OC)CC[N+](C)(Cc1ccc(Br)nc1)C2 (centres undefined) | 60.6 | 24.8 | 35.1 | 53.4 | – | – | – | –
22 | COc1cc2c(cc1OCc1ccccc1)C[N+](C)(Cc1ccc(Br)cn1)CC2 (centres undefined) | 27.8 | 31.2 | 23.7 | 16 | – | – | – | –
23 | COc1cc2c(cc1OCc1ccccc1)C[N+](C)(Cc1ccc(Oc3ccc(C4CCC(=O)CC4)cc3)nc1)CC2 (centres undefined) | – | – | – | – | 4.73 | 4.75 | 4.91 | < 4.70
24 | COc1cc2c(cc1OCc1ccccc1)C[N+](C)(Cc1ccc3ccccc3n1)CC2 (centres undefined) | 7.43 | 13 | 2.75 | 3.2 | – | – | – | –
25 | COc1cc2c(cc1OCc1ccccc1)C[N+](C)(Cc1ccc(Oc3ccc(OCc4ccccc4)cc3)nc1)CC2 (centres undefined) | – | – | – | – | 5.05 | 4.94 | 4.91 | 5.17
26 | COc1cc2c(cc1O)C[N+](C)(Cc1ccc(Br)nc1)CC2 (centres undefined) | 15 | 12.3 | 34.4 | 34.5 | – | – | – | –
27 | COc1cc2c(cc1OCc1ccccc1)C[N+](C)(Cc1ccc(Oc3cc(C(F)(F)F)ccc3F)nc1)CC2 (centres undefined) | – | – | – | – | 4.73 | 4.90 | 4.76 | 4.91
28 | COc1cc2c(c(OC)c1OC)CCN(C)C2 | 9.18 | 22.3 | 52 | 18.2 | – | – | – | –
29 | COc1cc2c(cc1OC)C[N+](C)(Cc1ccc(Br)nc1)CC2 (centres undefined) | 19.8 | 41.1 | 30.5 | 18.4 | – | – | – | –
30 | COc1cc2c(cc1OCc1ccccc1)C[N+](C)(Cc1ccnc3ccccc13)CC2 (centres undefined) | 11.7 | 9.33 | 8.29 | 12.1 | – | – | – | –
31 | COc1ccc2c(c1OC)C(=O)O[C@@H]2[C@H]1c2c(cc3c(c2OC)OCO3)CCN1C [NOSCAPINE] | – | – | – | – | 3.81 | 3.74 | 3.92 | 3.92
